“And” between values parts separate entries of the source, which are not always exact repeats. Identical values can stand only once. Like-named read-outs stand apart in the source and are kept apart here.

In series [1] the target is T1, purified PfENR (Plasmodium falciparum, UniProt Q9BH77).
T1 sequence (Q9BH77 22-432): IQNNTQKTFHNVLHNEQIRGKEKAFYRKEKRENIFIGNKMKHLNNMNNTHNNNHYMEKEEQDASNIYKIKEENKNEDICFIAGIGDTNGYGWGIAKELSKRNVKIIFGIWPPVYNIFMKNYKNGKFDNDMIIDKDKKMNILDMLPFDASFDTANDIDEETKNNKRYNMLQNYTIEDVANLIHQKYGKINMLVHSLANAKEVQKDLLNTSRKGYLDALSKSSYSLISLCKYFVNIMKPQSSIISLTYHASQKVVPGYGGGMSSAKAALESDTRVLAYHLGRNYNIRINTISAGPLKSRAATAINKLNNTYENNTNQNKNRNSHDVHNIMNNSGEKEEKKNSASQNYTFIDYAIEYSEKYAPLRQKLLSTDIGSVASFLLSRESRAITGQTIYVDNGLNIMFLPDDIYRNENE
The series can be described thus: PfENR inhibition, standard enzyme assay. Format: biochemical. Particulars: read-out: Inhibition of PfENR (IC50 μM). The method, then:
(§1) PfENR activity was determined using standard assay described earlier.

Series [2] can be described thus: Mechanical hyperalgesia, Randall-Selitto, carrageenan induced. Format: in vivo, rats. Particulars: 15 mg/kg b wt., after 1 hrs, basal level in 5 hrs. The method, then: Mechanical hyperalgesia was measured as hind limb withdrawal threshold in response to a mechanical stimulus applied to hind paws of rat using Randall-selitto meter, Randall and Selitto, 1957. To determine the mechanical hyperalgesia, the force was applied with increased pressure at a constant rate until the animal withdrew its limb. The base line nociceptive threshold was measured before induction of hyperalgesia. Moreover, hyperalgesia was induced by carrageenan and then groups of animal were treated with compound 4, compound 6 and compound 8 (15 mg/kg body weight) and Ibuprofen (50 mg/kg body weight). Control group was treated with physiological saline. […] The anti-nociceptive efficacy of the compounds has been evaluated the efficacy with paw withdrawal threshold latency of animals.

Series [3] can be described thus: Tail flick latency test. Particulars: 15 mg/kg b. wt. vs Ibuprofen 50 mg/kg b. wt., 30 min and 60 min post injection.
Experimental: Hot plate latency test was performed under red light on the metal surface of hot plate analgesia meter (IITC, Life science, CA). Animals were placed individually on the surface of hot plate maintained at a constant temperature 54±1° C. The anti-nociceptive response was latency recorded from the time when animal was placed on the heated surface until the behavior response show licking of hind paw to avoid thermal nociception. A maximum hot plate latency of 30 sec was used for each animal to prevent paw tissue damage. Base line nociceptive latency was obtained for each animal prior to any drug administration. Thereafter, groups of animals were treated with different concentration of different derivatives of benzothiophene and well known NSAIDs. […] Subsequent nociceptive response latency for each animal was determined at 30 and 60 min after drug administration. […] In continuation of tail flick latency assay, the anti-nociceptive effect of the compounds was monitored. Rats treated as described above were subjected to determination of thermal nociceptive pain. Rats were confined in restrainer and allowed to accommodate. The tail withdrawal test consisted of immersing the posterior 8-10 cm of the tail in hot water bath maintained at 54±1° C. Withdrawal latency for tail flicking was measured. A maximum tail flick latency of 20 sec was permitted to minimize tissue damage.
A short description of series [4]: Hot plate latency test (thermal hyperalgesia). Format: in vivo, rats. Particulars: for Analgesic activity compared with Ibuprofen, hot plate: compounds 15 mg/kg b. wt. vs Ibuprofen 50 mg/kg b. wt. The method, then:
The animals were housed in an animal house facility of National Institute of Immunology, India, with controlled temperature (22±2° C.) under a 12/12 h light/dark cycle. They had free access to food and water ad libitum. All experiments were conducted according to the guidelines of the international association for the study of pain and approved by the institutional ethical committee for animal research. All in vivo experiments were carried out on inbred male […] rats ( 200-320 g body weight). Same age and equal body weight of animals were used according to experiments. No animals were used for more than one experiment. Most popular non-steroidal anti-inflammatory drugs which are widely use for treatment of chronic and inflammatory pain, such as Ibuprofen, Naproxen, Ketoprofen, Aspirin, Nimesulide, Indomethacine were purchased from Cayman Chemicals, USA and used to evaluate the efficacy of drugs in animal model. These drugs and different derivatives of Benzothiophene were dissolved in minimum volume of Dimethyl sulfoxide (DMSO) and further diluted in Phosphate buffer saline prior to use. […] Withdrawal latency for tail flicking was measured. […] NSAIDs is commonly evaluated by hot plate latency assay whereby animals are exposed to thermal stimulus (54 degree […] time for hind paw licking is measured as behavioural response for pain.

The test system of series [5] is Plasmodium falciparum 3D7. Kind of series: In vitro inhibition of P. falciparum 3D7 blood-stage parasites. The note with it: for IC50: read-out: P. falciparum (IC50 μM). Format: cell-based. On the procedure:
Benzothiophene carboxamide derivatives of the present invention were checked for their anti-parasitic activity against 3D7 (chloroquine sensitive strain) in an in vitro culture. […] To find out parasite stage where these compounds act, synchronised ring stage culture of P. falciparum was treated with 2.5 μM concentration of compounds 6 and 7. […] When compounds 6 and 7 were added at the trophozoite stage the cells could not proceed to the schizont stage indicating the growth inhibition occurs at trophozoite stage.
Synchronised culture of P. falciparum 3D7 was treated with 2.5 μM compound 10 and 11 at the ring stage.

Series [6] relates to blood-stage P. berghei ANKA. The series can be described thus: Experimental cerebral malaria in C57BL/6 mice. Format: in vivo. The note with it: for Mean Survival Days (Observed for 25 days): 5 mg/kg body weight daily for six days. On the procedure: C57BL/6 mice were infected with blood-stage P. berghei ANKA as discussed in the experimental section. After 24 hours of infection mice were treated intravenously with various doses of inhibitors. It was observed that all control mice developed hypothermia by day 2, ataxia and convulsions by day 3 and died by day 6, whereas inhibitor treated groups had considerably higher longevity (11-24 days). Though each group of mice developed hypothermia by day 4, convulsions and ataxia development were delayed in case of treated mice. […] The mice treated with 2.5 mg/kg body weight survived for 18 days. Even at or below 1 mg/kg body weight of inhibitor dose, the mice survived for 11 days, but paralysis and ataxia development occurred on Day 7.
[…]. The mice were treated for 6 days. […]. Chloroquine was used as the control drug. […].
Therefore, compounds 10 and 11 were also administered at 5 mg/Kg body weight. The compounds were administered through intraperitoneal, peroral, subcutaneous and intravenous routes. Compound 10 and 11 were administered once daily for 6 days. […]. The mean survival days for this treatment group was 16 (FIG. 12c and Table III). […]. Chloroquine was used as the control drug.

Series [7] has as its target T1, purified PfENR. Kind of series: PfENR inhibition kinetics, cofactor potency and progress curve analysis. Format: biochemical. The method, then:
as §1
The accumulation of product further decreased when compound 6 was preincubated with the enzyme (curve c). On addition of NAD+ to this reaction the rate of product accumulation further decreased (curve d).
Progress curves for inhibition by varying concentrations of compounds 6 and 7 were examined in detail (FIGS. 16a and 16b). From the progress curve analyses, it was inferred that for each concentration of the inhibitors the initial and the steady state velocity decreased exponentially with time. At higher inhibitor concentration, steady state is reached rapidly with a decrease in steady state velocity (vs). […] Progress curves were analysed using equation 3a from which a series of Kobs values were obtained for each concentration of inhibitor.

Series [8] deals with HepG2 cells. The series can be described thus: Toxicity to HepG2 cells. Format: cell-based. The note with it: one day treatment.
Series [9] concerns hepatic cell stages of P. berghei. The series can be described thus: Inhibition of hepatic cell stages (EEFs) of P. berghei. Format: cell-based.
Series [10] concerns liver stage of Plasmodium. The note with it: Singh A. P. et al, IUBMB life 61, 923-928; read-out: IC50, inhibition of liver stage parasite development before invasion; cited from earlier work.
Where [11] appears, read: Erythrocyte, growth inhibition, red blood cell stages of Plasmodium falciparum 3D7 (chloroquine sensitive).

`O=C(NCc1ccccc1)c1sc2ccccc2c1Br` [Compound 4, N-benzyl-3-bromobenzo[b]thiophene-2-carboxamide] yielded a melting point of 115 to 117 °C. Also, the IC50 in [1] was 0.51 µM and 0.501 µM. In addition, the “Mechanical hyperalgesia, paw withdrawal threshold” value in series [2] is given as “significantly reversed the mechanical hyperalgesia”. In addition, the “Anti-nociceptive response, tail flick latency assay” value in series [3] is given as “better anti-nociceptive response than the Ibuprofen”. Moreover, the “Analgesic activity compared with Ibuprofen, hot plate” value in [4] is on record as “potent analgesic activity at much lower concentration than Ibuprofen”. Further, the IC50 in series [5] (setting [11]) was found to be 2 ± 0.5 µM.

Take `O=C(NCc1ccc(F)cc1)c1sc2ccccc2c1Br` [Compound 6, N-(4-fluorobenzyl)-3-bromobenzo[b]thiophene-2-carboxamide]: the half-maximal inhibitory concentration (IC50) in series [1] came out at 0.115 ± 0.12 µM; in series [5] (setting [11]), 1 ± 0.3 µM; in series [9] (Plasmodium berghei, 48 h, hepatic cell stages of P. berghei, two days treatment) it was 51 µM. In addition, the “Survival, dose determination” value was 18 days in series [6] (2.5 mg/kg body weight intravenously, C57BL/6 mice); 24 days in series [6] (5 mg/kg body weight intravenously, C57BL/6 mice); 20 days in [6] (10 mg/kg body weight intravenously, C57BL/6 mice); 11 days in series [6] (at or below 1 mg/kg body weight intravenously, C57BL/6 mice). Besides, the “Kidney and liver functions (urea, creatinine and glucose levels)” value in [6] (5 mg/kg body weight) was “normal kidney and liver functions”. The “Mean Survival Days (Observed for 25 days)” value in series [6] (Intraperitoneal, C57BL/6 mice, 5 mg/kg) came to 20 ± 0.9 days; in [6] (Intraperitoneal, C57BL/6 mice, listed as compound 6, 5 mg/kg) it was 21 days; in series [6] (Intravenous, C57BL/6 mice, 5 mg/kg), 24 ± 2.0 days; in [6] (Intravenous, C57BL/6 mice, listed as compound 6, 5 mg/kg), 24 days; in [6] (Per oral, C57BL/6 mice) it was 12 ± 1.2 days; in series [6] (Subcutaneous, C57BL/6 mice, 5 mg/kg), 18 ± 1.3 days. In series [6] (Subcutaneous, C57BL/6 mice, listed as compound 6, 5 mg/kg), the “Mean Survival Days (Observed for 25 days)” value is recorded as 21 days. Besides, in [6] (intravenous treatment, C57BL/6 mice), the “Parasitemia levels (Peter's test)” value is “undetectable level by Day 18”. The same molecule gave an Increase of longevity in series [6] (oral route, 5 mg/kg body weight, 6 days treatment) of 5 days. The “Effect of NAD+ on binding to PfENR (cofactor potency assay)” value in series [7] (10 μM NAD+ added to preincubated mixture) is “potentiate the binding”. In addition, in series [7] (Dixon plot, cofactor NADH), the “Inhibition kinetics with respect to NADH” value was “competitive kinetics with NADH”. Also, the “Inhibition kinetics with respect to crotonoyl CoA” value in [7] (Dixon plot, substrate crotonoyl CoA) was “uncompetitive against crotonoyl CoA”. The “Binding behaviour from progress curves” value in series [7] (inhibitor 0-750 nM) is “slow tight binding behaviour”. Moreover, the “Isomerization rate constant (k5 * 10^−2) (s^−1)” value in [7] (purified PfENR, progress curves) is 1.19 ± .045 10^−2 s^−1. The koff in [7] (purified PfENR, progress curves, read-out: Dissociation rate constant (k6* 10^−3)) turned out to be 0.001 s⁻¹. Moreover, in [7] (purified PfENR, read-out: Dissociation constant (Ki)), the inhibition constant (Ki) worked out at 48.9 nM. Also, in [8], the “TC50 for HepG2 cells” value is recorded as 2.0 ± 0.2 mM. In series [2], the “Mechanical hyperalgesia, paw withdrawal threshold” value was “significantly reversed the mechanical hyperalgesia”. The “Anti-nociceptive response, tail flick latency assay” value in [3] is “better anti-nociceptive response than the Ibuprofen”. The “MPE index, hot plate latency assay” value in [4] (15 mg/kg b. wt. i.p., 30 and 60 min) was “preeminent analgesic activity compared to other compounds”. In addition, the “Analgesic activity compared with Ibuprofen, hot plate” value in series [4] is on record as “potent analgesic activity at much lower concentration than Ibuprofen”. The “Stage of parasite growth arrest” value in series [5] (2.5 μM, added at ring stage, P. falciparum 3D7) is on record as “arrested at the trophozoite stage”. Further, the “Parasites observed to be dead” value in series [5] (2.5 μM, synchronised ring stage culture of P. falciparum 3D7) is roughly 90%. The “Therapeutic Index (TI) [=TC50/IC50]” value in series [9] (TC50 HepG2 / IC50 EEFs) stood at 39.0 ± 4.

Regarding `Oc1cc(Cl)ccc1Oc1ccc(Cl)cc1Cl` [Triclosan, reference compound], the 50% inhibitory concentration (IC50) is 6.8 µM in [10] and 0.8 ± 0.1 µM in series [5] (Plasmodium falciparum, 3D7, Erythrocyte).
